Test results reported in patent US20230124361A1, “SMALL MOLECULE STING ANTAGONISTS” (CURADEV PHARMA PVT. LTD., priority 2020, published 2023).
pIC50: −log10 of the molar value.

Target: T1, STING (Homo sapiens, UniProt Q86WV6, G230A/H232R/R293Q/R71H)
T1 construct: host or cells: THP1-Dual cells (human THP-1 monocyte line with Lucia/SEAP reporters)
Test: Reporter gene expression assay in THP1-Dual cells (IRF pathway Lucia luciferase, 2',3'-cGAMP stimulation)
Type: cell-based
Settings: 10 min preincubation, 5 μM 2',3'-cGAMP, 20 hr, IRF reporter QUANTI-Luc, read-out: THP-1 (HAQ) Activity
Method: Reporter Gene Expression Assay in THP-1 Cells
THP1-Dual™ cells (Invivogen) were derived from the human THP-1 monocyte cell line by stable integration of two inducible reporter constructs. As a result, THP1-Dual™ cells allow the simultaneous study of the IRF pathway, by assessing the activity of a secreted luciferase (Lucia) and the NF-κB pathway, by monitoring the activity of secreted SEAP. 5×10^4 THP1-Dual™ cells were seeded in 384-well plates in growth medium and preincubated with novel compounds for 10 minutes followed by stimulation with 5 μM 2′,3′-cGAMP. After 20 hr of stimulation the supernatant was removed and the IRF pathway reporter protein was readily measured in the cell culture supernatant using QUANTI-Luc™ (Invivogen), a luciferase detection reagent on a Spectramax i3X luminometer.
In the tables below, IC50 value ranges for exemplary compounds are given. The IC50 ranges are indicated as “A” for values less than or equal to 1 μM, “B” for values greater than 1 μM and less than or equal to 10 μM, and “C” for values greater than 10 μM.

T1 sequence (Q86WV6 whole entry R71H/G230A/H232R/R293Q): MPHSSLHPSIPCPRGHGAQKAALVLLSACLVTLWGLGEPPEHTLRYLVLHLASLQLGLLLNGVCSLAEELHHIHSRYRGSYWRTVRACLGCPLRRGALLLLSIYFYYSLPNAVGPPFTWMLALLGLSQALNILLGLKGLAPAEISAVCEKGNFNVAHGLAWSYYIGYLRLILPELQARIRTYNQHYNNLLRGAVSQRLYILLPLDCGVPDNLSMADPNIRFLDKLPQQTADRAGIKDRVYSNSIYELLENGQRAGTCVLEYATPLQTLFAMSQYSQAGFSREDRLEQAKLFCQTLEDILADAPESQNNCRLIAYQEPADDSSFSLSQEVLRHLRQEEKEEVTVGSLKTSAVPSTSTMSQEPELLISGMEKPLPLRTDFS

Row | SMILES | pIC50
1 | NC(=O)c1cccc(CN2C(=O)COc3cc(NC(=O)Nc4ccc5cc[nH]c5c4)ccc32)c1 [Example 98, 3-((7-(3-(1H-indol-6-yl)ureido)-3-oxo-2,3-dihydro-4H-benzo[b][1,4]oxazin-4-yl)methyl)benzamide] | 5.00 to 6.00
2 | O=C(Nc1ccc2c(c1)OCC(=O)N2CCOc1ccccc1Cl)Nc1ccc2cc[nH]c2c1 [Example 100, 1-(4-(2-(2-chlorophenoxy)ethyl)-3-oxo-3,4-dihydro-2H-benzo[b][1,4]oxazin-7-yl)-3-(1H-indol-6-yl)urea] | 5.00 to 6.00
3 | O=C(Nc1ccc2c(c1)OCC(=O)N2CCc1ccccc1Cl)Nc1ccc2cc[nH]c2c1 [Example 110, 1-(4-(2-chlorophenethyl)-3-oxo-3,4-dihydro-2H-benzo[b][1,4]oxazin-7-yl)-3-(1H-indol-6-yl)urea] | 5.00 to 6.00
4 | O=C(Nc1ccc2c(c1)OCC(=O)N2Cc1ccc(F)c(Cl)c1)Nc1ccc2cc[nH]c2c1 [Example 111, 1-(4-(3-chloro-4-fluorobenzyl)-3-oxo-3,4-dihydro-2H-benzo[b][1,4]oxazin-7-yl)-3-(1H-indol-6-yl)urea] | 5.00 to 6.00
5 | O=C(Nc1ccc2c(c1)OCC(=O)N2Cc1ccccc1C(F)(F)F)Nc1ccc2cc[nH]c2c1 [Example 113, 1-(1H-indol-6-yl)-3-(3-oxo-4-(2-(trifluoromethyl)benzyl)-3,4-dihydro-2H-benzo[b][1,4]oxazin-7-yl)urea] | 5.00 to 6.00
6 | O=C(Nc1ccc2c(c1)OCC(=O)N2Cc1ccc2c(c1)OCO2)Nc1ccc2cc[nH]c2c1 [Example 114, 1-(4-(benzo[d][1,3]dioxol-5-ylmethyl)-3-oxo-3,4-dihydro-2H-benzo[b][1,4]oxazin-7-yl)-3-(1H-indol-6-yl)urea] | ≥ 6.00
7 | COc1ccc(OC)c(CN2C(=O)COc3cc(NC(=O)Nc4ccc5cc[nH]c5c4)ccc32)c1 [Example 115, 1-(4-(2,5-dimethoxybenzyl)-3-oxo-3,4-dihydro-2H-benzo[b][1,4]oxazin-7-yl)-3-(1H-indol-6-yl)urea] | 5.00 to 6.00
8 | N#Cc1cccc(CN2C(=O)COc3cc(NC(=O)Nc4ccc5cc[nH]c5c4)ccc32)c1 [Example 116, l-(4-(3-cyanobenzyl)-3-oxo-3,4-dihydro-2H-benzo[b][1, 4]oxazin-7-yl)-3-(1H-indol-6-yl)urea] | 5.00 to 6.00
9 | O=C(Nc1ccc2c(c1)OCC(=O)N2Cc1nc2ccccc2s1)Nc1ccc2cc[nH]c2c1 [Example 117, 1-(4-(benzo[d]thiazol-2-ylmethyl)-3-oxo-3,4-dihydro-2H-benzo[b][1,4]oxazin-7-yl)-3-(1H-indol-6-yl)urea] | ≥ 6.00
10 | O=C(Nc1ccc2c(c1)OCC(=O)N2Cc1ccc(C(=O)O)cn1)Nc1ccc2cc[nH]c2c1 [Example 118, 6-((7-(3-(1H-indol-6-yl)ureido)-3-oxo-2,3-dihydro-4H-benzo[b][1,4]oxazin-4-yl)methyl)nicotinic acid] | < 5.00
11 | O=C(Nc1ccc2c(c1)OCC(=O)N2Cc1ccc2nsnc2c1)Nc1ccc2cc[nH]c2c1 [Example 119, 1-(4-(benzo[c][1,2,5]thiadiazol-5-ylmethyl)-3-oxo-3,4-dihydro-2H-benzo[b][1,4]oxazin-7-yl)-3-(1H-indol-6-yl)urea] | 5.00 to 6.00
12 | N#Cc1ccc(CN2C(=O)COc3cc(NC(=O)Nc4ccc5cc[nH]c5c4)ccc32)c(F)c1 [Example 120, 1-(4-(4-cyano-2-fluorobenzyl)-3-oxo-3,4-dihydro-2H-benzo[b][1,4]oxazin-7-yl)-3-(1H-indol-6-yl)urea] | 5.00 to 6.00
13 | O=C(Nc1ccc2c(c1)OCC(=O)N2Cc1nc(-c2ccccc2)no1)Nc1ccc2cc[nH]c2c1 [Example 121, 1-(1H-indol-6-yl)-3-(3-oxo-4-((3-phenyl-1,2,4-oxadiazol-5-yl)methyl)-3,4-dihydro-2H-benzo[b][1,4]oxazin-7-yl)urea] | 5.00 to 6.00
14 | CS(=O)(=O)c1cc(Cl)ccc1CN1C(=O)COc2cc(NC(=O)Nc3ccc4cc[nH]c4c3)ccc21 [Example 122, 1-(4-(4-chloro-2-(methylsulfonyl)benzyl)-3-oxo-3,4-dihydro-2H-benzo[b][1,4]oxazin-7-yl)-3-(1H-indol-6-yl)urea] | 5.00 to 6.00
15 | N#Cc1ccc(CN2C(=O)COc3cc(NC(=O)Nc4ccc5cc[nH]c5c4)ccc32)cc1 [Example 123, 1-(4-(4-cyanobenzyl)-3-oxo-3,4-dihydro-2H-benzo[b][1,4]oxazin-7-yl)-3-(1H-indol-6-yl)urea] | 5.00 to 6.00
16 | COc1ccc(F)c(CN2C(=O)CSc3cc(NC(=O)Nc4ccc5cc[nH]c5c4)ccc32)c1Cl [Example 124, l-(4-(2-chloro-6-fluoro-3-methoxybenzyl)-3-oxo-3,4-dihydro-2H-benzo[b][1, 4]thiazin-7-yl)-3-(1H-indol-6-yl)urea] | ≥ 6.00
17 | O=C(Nc1ccc2c(c1)SCC(=O)N2Cc1c(F)ccc(O)c1Cl)Nc1ccc2cc[nH]c2c1 [Example 125, l-(4-(2-chloro-6-fluoro-3-hydroxybenzyl)-3-oxo-3,4-dihydro-2H-benzo[b][1, 4]thiazin-7-yl)-3-(1H-indol-6-yl)urea] | ≥ 6.00
18 | COc1cc(F)c(CN2C(=O)CSc3cc(NC(=O)Nc4ccc5cc[nH]c5c4)ccc32)c(F)c1 [Example 126, 1-(4-(2,6-difluoro-4-methoxybenzyl)-3-oxo-3,4-dihydro-2H-benzo[b][1, 4]thiazin-7-yl)-3-(1H-indol-6-yl)urea] | ≥ 6.00
19 | O=C(Nc1ccc2c(c1)SCC(=O)N2Cc1c(F)cc(O)cc1F)Nc1ccc2cc[nH]c2c1 [Example 127, 1-(4-(2,6-difluoro-4-hydroxybenzyl)-3-oxo-3,4-dihydro-2H-benzo[b][1, 4]thiazin-7-yl)-3-(1H-indol-6-yl)urea] | 5.00 to 6.00

The remaining lines, values ahead:

Row | pIC50 | SMILES
20 | ≥ 6.00 | O=C(Nc1ccc2c(c1)OCC(=O)N2CC1COc2ccccc2O1)Nc1ccc2cc[nH]c2c1 (stereo not shown) [Example 97, 1-(4-((2,3-dihydrobenzo[b][1,4]dioxin-2-yl)methyl)-3-oxo-3,4-dihydro-2H-benzo[b][1,4]oxazin-7-yl)-3-(1H-indol-6-yl)urea]
21 | ≥ 6.00 | O=C(Nc1ccc2c(c1)OCC(=O)N2Cc1cc(Cl)cc(C(F)(F)F)c1)Nc1ccc2cc[nH]c2c1 [Example 99, l-(4-(3-chloro-5-(trifluoromethyl)benzyl)-3-oxo-3,4-dihydro-2H-benzo[b][1, 4]oxazin-7-yl)-3-(1H-indol-6-yl)urea]
22 | ≥ 6.00 | O=C(Nc1ccc2c(c1)OCC(=O)N2Cc1ccccc1-c1ccccc1)Nc1ccc2cc[nH]c2c1 [Example 101, 1-(4-([1,1′-biphenyl]-2-ylmethyl)-3-oxo-3,4-dihydro-2H-benzo[b][1,4]oxazin-7-yl)-3-(1H-indol-6-yl)urea]
23 | ≥ 6.00 | O=C(Nc1ccc2c(c1)OCC(=O)N2Cc1cc(F)cc(Cl)c1)Nc1ccc2cc[nH]c2c1 [Example 102, 1-(4-(3-chloro-5-fluorobenzyl)-3-oxo-3,4-dihydro-2H-benzo[b][1,4]oxazin-7-yl)-3-(1H-indol-6-yl)urea]
24 | ≥ 6.00 | O=C(Nc1ccc2c(c1)OCC(=O)N2Cc1cc2c(cc1Cl)OCO2)Nc1ccc2cc[nH]c2c1 [Example 103, 1-(4-((6-chlorobenzo[d][1,3]dioxol-5-yl)methyl)-3-oxo-3,4-dihydro-2H-benzo[b][1,4]oxazin-7-yl)-3-(1H-indol-6-yl)urea]
25 | ≥ 6.00 | O=C(Nc1ccc2c(c1)OCC(=O)N2Cc1ccc(C(F)(F)F)nc1)Nc1ccc2cc[nH]c2c1 [Example 104, 1-(1H-indol-6-yl)-3-(3-oxo-4-((6-(trifluoromethyl)pyridin-3-yl)methyl)-3,4-dihydro-2H-benzo[b][1,4]oxazin-7-yl)urea]
26 | ≥ 6.00 | O=C(Nc1ccc2c(c1)OCC(=O)N2Cc1cc(F)cc(F)c1)Nc1ccc2cc[nH]c2c1 [Example 105, 1-(4-(3,5-difluorobenzyl)-3-oxo-3,4-dihydro-2H-benzo[b][1,4]oxazin-7-yl)-3-(1H-indol-6-yl)urea]
27 | ≥ 6.00 | O=C(Nc1ccc2c(c1)OCC(=O)N2Cc1ccc(SC(F)(F)F)cc1)Nc1ccc2cc[nH]c2c1 [Example 106, 1-(1H-indol-6-yl)-3-(3-oxo-4-(4-((trifluoromethyl)thio)benzyl)-3,4-dihydro-2H-benzo[b][1,4]oxazin-7-yl)urea]
28 | ≥ 6.00 | O=C(Nc1ccc2c(c1)OCC(=O)N2Cc1ccc(OC(F)(F)F)c(Cl)c1)Nc1ccc2cc[nH]c2c1 [Example 107, 1-(4-(3-chloro-4-(trifluoromethoxy)benzyl)-3-oxo-3,4-dihydro-2H-benzo[b][1,4]oxazin-7-yl)-3-(1H-indol-6-yl)urea]
29 | ≥ 6.00 | Cc1cc(CN2C(=O)COc3cc(NC(=O)Nc4ccc5cc[nH]c5c4)ccc32)ccc1F [Example 108, 1-(4-(4-fluoro-3-methylbenzyl)-3-oxo-3,4-dihydro-2H-benzo[b][1,4]oxazin-7-yl)-3-(1H-indol-6-yl)urea]
30 | ≥ 6.00 | O=C(Nc1ccc2c(c1)OCC(=O)N2Cc1ccc(OC(F)F)cc1)Nc1ccc2cc[nH]c2c1 [Example 109, 1-(4-(4-(difluoromethoxy)benzyl)-3-oxo-3,4-dihydro-2H-benzo[b][1,4]oxazin-7-yl)-3-(1H-indol-6-yl)urea]
31 | ≥ 6.00 | O=C(Nc1ccc2c(c1)OCC(=O)N2Cc1cc(F)cc(C(F)(F)F)c1)Nc1ccc2cc[nH]c2c1 [Example 112, 1-(4-(3-fluoro-5-(trifluoromethyl)benzyl)-3-oxo-3,4-dihydro-2H-benzo[b][1,4]oxazin-7-yl)-3-(1H-indol-6-yl)urea]
